{"source": "patent US20250313544A1", "about": "“INHIBITORS OF GLUTATHIONE S-TRANSFERASE ZETA 1 (GSTZ1) AND METHODS OF USE” (H. LEE MOFFITT CANCER CENTER AND RESEARCH INSTITUTE, INC., priority 2022, published 2025)", "key": {"[1]": {"system": "H520 cells harboring amplified FGFR1", "test": "Cell viability assay (CellTiter-Glo) in H520 cells", "assay_type": "cell-based, human", "procedure": "(§1) Cells were seeded in Corning 384-well black walled/clear bottom microplates with a density of 1,000 cells/well and treated with indicated drugs and concentrations following cell attachment for 24 h. After 72 h or 96 h, as indicated, cell viability was evaluated with CellTiter-Glo (Promega, Madison, WI) according to manufacturer's recommendations. An M5 Spectramax plate reader (Molecular devices) was used to read the plates with 500 ms integration. Data was processed and analyzed using Excel and GraphPad Prism 9.0."}, "[2]": {"system": "drug-refractory NSCLC cells (H1792, H520, HCC366)", "test": "Cell viability assay (CellTiter-Glo) across drug-refractory NSCLC cell lines", "assay_type": "cell-based, human", "details": "single agent", "procedure": "as §1"}, "[3]": {"system": "H1792 cells harboring KRAS G12C", "test": "Cell viability assay (CellTiter-Glo) in H1792 cells", "assay_type": "cell-based, human", "procedure": "as §1"}, "H1792 LUAD cells": {"system": "H1792 LUAD cells", "test": "Chemical proteomics target profiling in live H1792 cells (label-free LC-MS/MS, comparison with control probe 22 and panel-wide cross-comparison)", "assay_type": "binding, human", "details": "for number of probe-enriched target candidates over control probe 22 (promiscuity): log2 ratio vs. control probe >2.32; for prominent target protein predominantly enriched by the probe: compared to control probe and probe panel; for other proteins also enriched by the probe: log2 ratio>2.32 and enrichment score>2", "procedure": "(§2) Cells were grown in 10 cm dishes to ˜90% confluence at the time of treatment. Cells were carefully washed twice with Dulbecco's phosphate buffered saline (DPBS) and replenished with fresh serum-free RPMI 1640 media containing indicated probes ([…]), competitors, or DMSO. Without competitors, cells were incubated with probes for 30 min at 37° C. and then exposed to 365 nm UV light for 15 min on ice. With competitors, cells were pre-treated with competitors for 30 min and photoactivated for 15 min. Probes were then added to cells for an additional 30 min incubation. For no UV experiments, cells were incubated for 15 min under ambient light. Cells were harvested in cold DPBS and pellets were washed with cold DPBS (2 X). Pellets were either directly processed or kept frozen at −80° C. until use. Cells pellets were lysed for 30 min in cold DPBS (100-300 uL) per culture dish supplemented with 1% NP-40, followed by sonication (5 pulses, 4 s on, 20 s off, output setting=4). Lysates were centrifuged at 20,817×g for 20 min, and supernatant (soluble proteome) was used for further processing. Protein concentrations were determined using Bradford assays.\nProtein pellets were transferred to 5 mL microcentrifuge tubes and then resuspended in a freshly-prepared solution of proteomics-grade urea (320 μL, 6 M Urea in DPBS) containing 80 μL of 10% SDS and dissolved by sonication. To each solution, 4 mL DPBS was added (final conc: 0.2%, total volume) and incubated with pre-equilibrated NeutrAvidin agarose resin (100 μL 1:1 slurry, Pierce, Cat. 29201) for 2 hrs at ambient temperature on a rotator. The NeutrAvidin beads were collected by centrifugation (1,400×g, 2 min) and sequentially washed with 0.2% SDS in DPBS (2×2 mL), detergent-free DPBS (2×2 mL), and 50 mM ammonium bicarbonate (AMBIC, 2×2 mL). Beads were resuspended with 200 μL 50 mM AMBIC and incubated with TCEP 50 μL (100 mM in 50 mM AMBIC) for 30 min at 37° C. Iodoacetamide (50 μL of 200 mM in 50 mM AMBIC) was added and incubated for 30 min at ambient temperature. The beads were again washed with 2×1 mL 50 mM AMBIC and resuspended in 100 μL of fresh 50 mM AMBIC and treated with 2 μg of sequencing grade modified trypsin (Promega, #V5111) at 37° C. overnight. These samples were acidified with formic acid (final conc: 5%) and centrifuged (1,000×g, 2 min). The supernatant was collected and desalted through ZIPTIPs, and the desalted peptide mixture were dried in vacuum and reconstituted with HPLC buffer (2% acetonitrile, 0.1% formic acid) for LC-MS/MS analysis. Tryptic peptides of avidin were excluded from MS2 analysis to maximize detection of the protein targets (Table S7). Samples were analyzed using LC-MS/MS after being spiked with 50 fmol/uL PRTC standards (88320, Pierce Retention Time Calibration Mixture, Thermo Fisher, MA). A nanoflow ultra high performance liquid chromatograph and nanoelectrospray orbitrap mass spectrometer (RSLCnano and Q Exactive plus, Thermo) were used for LC-MS/MS. The sample was loaded onto a pre-column (C18 PepMap100, 2 cm length×100 μm ID packed with C18 reversed-phase resin, 5 μm particle size, 100 Å pore size) and washed for 8 minutes with aqueous 2% acetonitrile and 0.1% formic acid. Trapped peptides were eluted onto the analytical column, (C18 PepMap100, 25 cm length×75 μm ID, 2 μm particle size, 100 Å pore size, Thermo). A 120-minute gradient was programmed as: 95% solvent A (aqueous 2% acetonitrile+0.1% formic acid) for 8 minutes, solvent B (aqueous 90% acetonitrile+0.1% formic acid) from 5% to 38.5% in 90 minutes, then solvent B from 50% to 90% B in 7 minutes and held at 90% for 5 minutes, followed by solvent B from 90% to 5% in 1 minute and re-equilibration for 10 minutes using a flow rate of 300 nl/min. Spray voltage was 1900 V. Capillary temperature was 275° C. S lens RF level was set at 40. Top 16 tandem mass spectra were collected in a data-dependent manner. The resolution for MS and MS/MS were set at 70,000 and 17,500 respectively. […]"}, "H1792 cells [4]": {"system": "H1792 cells", "test": "In-gel fluorescence analysis of probe-labeled proteins after photocrosslinking in live H1792 cells", "assay_type": "binding, human", "details": "compared to vehicle", "procedure": "as §2\nTo 1 mg of protein, were added a mixture of TBTA (Tris((1-benzyl-4-triazolyl)methyl)amine, 60 μL/sample, 1.7 mM in 1:4 DMSO: t-BuOH stock), CuSO4 (20 μL/sample, 50 mM in H2O), TCEP (tris(2-carboxyethyl) phosphine, 20 μL/sample, 50 mM in DPBS, made fresh) and Biotin-Azide conjugate (10 μL/sample, 10 mM in DMSO stock). Each sample was rotated at room temperature for 2 h. To each resultant a cold 4:1 mixture (600 μL) of methanol (MeOH)/chloroform (CHCl3) was added followed by cold PBS (100 μL) on ice. The resulting cloudy mixture was centrifuged (5,000×g, 10 min, 4° C.) to fractionate the protein interface from the organic and aqueous solvent layers. A MeOH:CHCl3 (1:1, 1 mL, 2×) mixture was used to wash protein discs thoroughly. Protein discs were sonicated in cold 4:1 MeOH:CHCl3 (2 mL) mixture. The remaining precipitate was pelleted by centrifugation (5,000×g, 10 min, 4° C.). […] Gels were subjected to fluorescence imaging or Western Blotting."}, "H1792 cells [5]": {"system": "H1792 cells", "test": "Protein tyrosine reactivity profiling (SuTEx probe HHS-482, LC-MS/MS) in H1792 cells", "assay_type": "cell-based, human", "details": "24 h treatment, log2 ratio ≤−0.585 or ≥0.585, p<0.05 vs. vehicle", "procedure": "Cell lysates were prepared and diluted to 2 mg/mL in PBS. Samples were treated with HHS-482 (a SuTEx probe) at 25 μM for 1 h at room temperature. Labeled proteomes were subjected to CuAAC conjugation with Biotin-Azide conjugate (200 μM) by mixing with TCEP (1 mM), TBTA (100 μM), and CuSO4 (1 mM). After 1 h incubation, resulting mixtures were subjected to MeOH: CHCl3 extraction as described above. Protein discs were reconstituted with urea buffer supplemented with 10% SDS. Samples were processed with NeutrAvidin beads, on-bead digestion with trypsin, and ZIPTIP purification as described above. Samples were dried in vacuum and prepared for LC-MS/MS analysis."}}, "data": [{"smiles": "CCN1CCN(c2ccc(Nc3cc(N(C)C(=O)Nc4c(Cl)c(OC)cc(OC)c4Cl)ncn3)cc2)CC1", "note": "[infigratinib, reference compound]", "values": [{"measurement": "cell response to targeted drug", "setting": "[1]; H520, FGFR1 overexpression", "result": "only partially respond"}]}, {"smiles": "C#CCCC1(CCC(=O)N2CCCC2COc2nc3ccccc3cc2C#N)N=N1", "note": "(stereo not drawn) [Probe 20, 2-((1-(3-(3-(but-3-yn-1-yl)-3H-diazirin-3-yl)propanoyl)pyrrolidin-2-yl)methoxy)quinoline-3-carbonitrile]", "values": [{"measurement": "cellular activity of probes (cell viability)", "setting": "[2]", "result": "displayed activity toward multiple tested cell lines"}]}, {"smiles": "C=CC(=O)N1CCN(c2ncnc3c(F)c(-c4c(O)cccc4F)c(Cl)cc23)CC1", "note": "[ARS1620, reference compound]", "values": [{"measurement": "cell response to targeted drug", "setting": "[3]; H1792, KRAS^G12C mutation", "result": "poorly responded"}]}, {"smiles": "C#CCCC1(CCC(=O)N2CC(Nc3ncccn3)C2)N=N1", "note": "[Probe 18, 3-(3-(but-3-yn-1-yl)-3H-diazirin-3-yl)-1-(3-(pyrimidin-2-ylamino)azetidin-1-yl)propan-1-one]", "values": [{"measurement": "number of probe-enriched target candidates over control probe 22 (promiscuity)", "setting": "H1792 LUAD cells", "result": "few"}]}, {"smiles": "C#CCCC1(CCC(=O)NCCCNC(=O)c2ccc3c4c(ncnc24)-c2ccccc2C3=O)N=N1", "note": "[Probe 21, N-(3-(3-(3-(but-3-yn-1-yl)-3H-diazirin-3-yl)propanamido)propyl)-7-oxo-7H-benzo[e]perimidine-4-carboxamide]", "values": [{"measurement": "cellular activity of probes (cell viability)", "setting": "[2]", "result": "displayed activity toward multiple tested cell lines"}, {"measurement": "relative potency among active probes (cell viability)", "setting": "[2]", "result": "more potent"}, {"measurement": "proteome labeling by probe (in-gel fluorescence)", "setting": "H1792 cells [4]", "result": "efficiently labeled a wide range of proteins"}, {"measurement": "number of candidate target proteins identified for the probe", "setting": "H1792 LUAD cells", "result": 5}, {"measurement": "cellular activity (cell viability)", "setting": "[1]; H520 cells, single agent", "result": "highly active"}, {"measurement": "cellular activity (cell viability)", "setting": "[3]; H1792 cells, single agent", "result": "highly active"}]}, {"smiles": "C#CCCC1(CCC(=O)N2CCN(Cc3nc(-c4cccs4)cs3)CC2)N=N1", "note": "[Probe 6, 3-(3-(but-3-yn-1-yl)-3H-diazirin-3-yl)-1-(4-((4-(thiophen-2-yl)thiazol-2-yl)methyl)piperazin-1-yl)propan-1-one]", "values": [{"measurement": "prominent target protein predominantly enriched by the probe", "setting": "H1792 LUAD cells", "result": "NDUFB11"}, {"measurement": "number of probe-enriched target candidates over control probe 22 (promiscuity)", "setting": "H1792 LUAD cells", "result": "most promiscuous"}, {"measurement": "other proteins also enriched by the probe", "setting": "H1792 LUAD cells", "result": "NDUFB10, AK3, and LTA4H"}]}, {"smiles": "C=CC(=O)N1CCN(c2nc(=O)n(-c3c(C)ccnc3C(C)C)c3nc(-c4c(O)cccc4F)c(F)cc23)[C@@H](C)C1", "note": "[sotorasib]", "values": [{"measurement": "number of proteins with significantly altered Tyr reactivity", "setting": "H1792 cells [5]", "result": 106, "unit": "proteins"}]}, {"smiles": "C#CCCC1(CCC(=O)Nc2ccc3c(c2)N(CC(C)C)C(=O)C(C)(C)CO3)N=N1", "note": "[Probe 7, 3-(3-(but-3-yn-1-yl)-3H-diazirin-3-yl)-N-(5-isobutyl-3,3-dimethyl-4-oxo-2,3,4,5-tetrahydrobenzo[b][1,4]oxazepin-7-yl)propanamide]", "values": [{"measurement": "cellular activity of probes (cell viability)", "setting": "[2]", "result": "displayed activity toward multiple tested cell lines"}, {"measurement": "prominent target protein predominantly enriched by the probe", "setting": "H1792 LUAD cells", "result": "MMGT1"}, {"measurement": "number of probe-enriched target candidates over control probe 22 (promiscuity)", "setting": "H1792 LUAD cells", "result": "most promiscuous"}]}, {"smiles": "C#CCCC1(CCC(=O)NC2CC(Oc3nccn4nc(C)cc34)CC(C)(C)C2)N=N1", "note": "(stereo not drawn) [Probe 2, 3-(3-(but-3-yn-1-yl)-3H-diazirin-3-yl)-N-(3,3-dimethyl-5-((2-methylpyrazolo[1,5-a]pyrazin-4-yl)oxy)cyclohexyl)propanamide]", "values": [{"measurement": "number of probe-enriched target candidates over control probe 22 (promiscuity)", "setting": "H1792 LUAD cells", "result": "most promiscuous"}]}, {"smiles": "C#CCCC1(CCC(=O)N2CCC(Oc3ncc(C(F)(F)F)cc3Cl)C2)N=N1", "note": "(stereo not drawn) [Probe 5, 3-(3-(but-3-yn-1-yl)-3/-diazirin-3-yl)-1-(3-((3-chloro-5-(trifluoromethyl)pyridin-2-yl)oxy)pyrrolidin-1-yl)propan-1-one]", "values": [{"measurement": "cellular activity of probes (cell viability)", "setting": "[2]", "result": "displayed activity toward multiple tested cell lines"}, {"measurement": "proteome labeling by probe (in-gel fluorescence)", "setting": "H1792 cells [4]", "result": "efficiently labeled a wide range of proteins"}, {"measurement": "prominent target protein predominantly enriched by the probe", "setting": "H1792 LUAD cells", "result": "ME3"}, {"measurement": "number of probe-enriched target candidates over control probe 22 (promiscuity)", "setting": "H1792 LUAD cells", "result": "most promiscuous"}, {"measurement": "other proteins also enriched by the probe", "setting": "H1792 LUAD cells", "result": "FARSA, PTGR1, ME1, YIF1A, and SGPL1"}]}, {"smiles": "C#CCCC1(CCC(=O)N2CCCCC2c2nnc(C(=O)OC)s2)N=N1", "note": "(stereo not drawn) [Probe 19, Methyl-5-(1-(3-(3-(but-3-yn-1-yl)-3H-diazirin-3-yl)propanoyl)piperidin-2-yl)-1,3,4-thiadiazole-2-carboxylate]", "values": [{"measurement": "number of probe-enriched target candidates over control probe 22 (promiscuity)", "setting": "H1792 LUAD cells", "result": "few"}]}]}
